Patent US20180296630A1, “METHODS AND COMPOSITIONS FOR PREVENTING OR TREATING OPHTHALMIC CONDITIONS” (Stealth BioTherapeutics Corp, priority 2012, published 2018)

Tests used:
HTM cells = experiment: TMRM fluorescence (mitochondrial membrane potential), acute H2O2 injury, FACS, HTM cells; type: cell-based, human; details: n=4
Source text: Methods to measure mitochondrial membrane potential using TMRM useful in the studies of the present invention have been described by Andrea Rasola and Massimo Geuna, A flow cytometry assay simultaneously detects independent apoptotic parameters, Cytometry 45:151-157, 2001; Mitoprobe™ JC-1 Kit for Flow Cytometry, Molecular Probes, Invitrogen, USA.
The mitochondrial membrane potential (Δψm) of HTM and GTM cells was investigated when those cells were exposed to hydrogen peroxide prior to administration of D-Arg-2′,6′-Dmt-Lys-Phe-NH2. First, the mitochondrial membrane potential was measured using confocal microscopy of cells labeled with tetramethylrhodamine methyl ester (TMRM, 500 nM×30 min) (FIG. 15). The mitochondrial membrane potential was also measured using flow cytometry (FIGS. 16-17) by labeling cells with the mitochondrion-selective probe tetramethylrhodamine methyl ester (TMRM, 500 nM×30 min).
The effects of D-Arg-2′,6′-Dmt-Lys-Phe-NH2 at mitigating acute oxidative injury in GTM and HTM cells was investigated. […] The percentage of fluorescence intensity compared to GTM control in H2O2, D-Arg-2′,6′-Dmt-Lys-Phe-NH2 10^−6M, D-Arg-2′,6′-Dmt-Lys-Phe-NH2 10^−7M, D-Arg-2′,6′-Dmt-Lys-Phe-NH2 10^−8M were 35.2±2.12%, 56.2±4.04%, 50.3±4.46%, 47.5±2.82% respectively, n=4; the HTM groups were 37.4±0.725%, 57.7±1.80%, 50.6±3.06%, 49.4±2.27% respectively, n=4. ** means P<0.01 compared to GTM H2O2 group; * means P<0.05 compared to GTM H2O2 group; ▴ ▴ ▴ means P<0.001 compared to HTM H2O2 group.

OIR mouse model = experiment: Oxygen-induced retinopathy (OIR) mouse model; type: in vivo
Source text: In this model, 7-day-old mouse pups with partially developed retinal vasculature were subjected to hyperoxia (75% oxygen) for 5 days, which stops retinal vessel growth and causes significant vaso-obliteration. On postnatal day 12, the pups were returned to room air, and by postnatal day 17, a florid compensatory retinal neovascularization occurred. This model of pathological neovascularization has been widely used as a substitute for proliferative diabetic retinopathy (DR).
To examine the effects of the aromatic-cationic peptides of the invention on prevention of OIR, OIR was induced in mouse pups and the mice were simultaneously administered an aromatic-cationic peptide (e.g., Phe-D-Arg-Phe-Lys-NH2 or D-Arg-2′,6′-Dmt-Lys-Phe-NH2) for approximately 6 weeks. The results are shown in FIG. 26 and indicate that treatment with D-Arg-2′,6′-Dmt-Lys-Phe-NH2 prevented the compensatory retinal neovascularization. As such, the aromatic-cationic peptides of the invention are useful in methods of preventing proliferative diabetic retinopathy in mammalian subjects.

[1] = system: cytochrome c release in HRECs; experiment: Cytochrome c release from mitochondria of HRECs (confocal microscopy, Western blot); type: cell-based, human; details: 30 mmol/L glucose; 24 h or 48 h
Source text: Glucose (30 mmol/L) induced cytochrome c release from the mitochondria of HRECs. Fixed HRECs were immunolabeled with a cytochrome c antibody and a mitochondrial specific protein antibody (HSP60).

Trx2 in HRECs = experiment: Trx2 expression in high glucose-treated HRECs (real-time PCR, Western blot); type: cell-based, human; details: 30 mM glucose co-treatment; 24 h and 48 h
Procedure: D-Arg-2′,6′-Dmt-Lys-Phe-NH2 increased the expression of Trx2 in the high glucose-treated HRECs. […] The mRNA expression level of Trx2 was measured by quantitative real-time PCR. Relative mRNA levels of Trx2 were normalized by 18S mRNA levels (* p<0.05 vs. the normal glucose medium group and the 30 mM high glucose treated group). Three independent samples were used for each time point.

661W cells = experiment: Mitochondrial viability of 661W cells exposed to tBHP (JC-1 assay); type: cell-based, mouse; details: 100 nmol/L
Procedure: The potential of D-Arg-2′,6′-Dmt-Lys-Phe-NH2 (D-Arg-2′,6′-Dmt-Lys-Phe-NH2) to protect against loss of mitochondrial viability induced by tBHP, 100 nmol/L D-Arg-2′,6′-Dmt-Lys-Phe-NH2 was administered to the cultures of 661w cells.

GTM cells = experiment: Morphology of GTM cells exposed to H2O2 (inverted phase contrast microscopy); type: cell-based, human; details: peptide prior to H2O2, concentration-dependent and time-dependent
Source text: The morphology of GTM cells was investigated when those cells were exposed to D-Arg-2′,6′-Dmt-Lys-Phe-NH2 prior to administration of hydrogen peroxide. […] That is, hydrogen peroxide mediated cell loss and rounding was diminished in cells exposed to D-Arg-2′,6′-Dmt-Lys-Phe-NH2 peptide. The mitochondrial membrane potential (Δψm) of HTM and GTM cells was also investigated when those cells were exposed to D-Arg-2′,6′-Dmt-Lys-Phe-NH2 prior to administration of hydrogen peroxide. The mitochondrial membrane potential was measured using confocal microscopy of cells labeled with tetramethylrhodamine methyl ester (TMRM, 500 nM×30 min) (FIG. 19-21). […] As such, D-Arg-2′,6′-Dmt-Lys-Phe-NH2 provides a protective effect against oxidative stress in GTM cells.

## D-Arg-2′,6′-Dmt-Lys-Phe-NH2
HTM cells; 10^−6M
  percentage of TMRM fluorescence intensity compared to control: 57.7±1.80%
HTM cells; 10^−7M
  percentage of TMRM fluorescence intensity compared to control: 50.6±3.06%
HTM cells; 10^−8M
  percentage of TMRM fluorescence intensity compared to control: 49.4±2.27%
OIR mouse model; OIR mouse model (FIG. 26)
  avascular area: reduced
OIR mouse model; OIR mouse pups
  compensatory retinal neovascularization: prevented
[1]
  translocation of cytochrome c between mitochondria and cytoplasm: decrease
Trx2 in HRECs
  expression of Trx2: increased
661W cells
  mitochondrial viability (JC-1 assay): significantly enhanced
GTM cells
  hydrogen peroxide-mediated morphological changes (cell loss and rounding): protects cells from hydrogen peroxide-mediated morphological changes
